Measured values: patent publication US9212182B2, “Bicyclic sulfonamide compounds as sodium channel inhibitors” (AMGEN INC., priority 2013, dated 2015)

These compounds were tested against Nav 1.7 (Homo sapiens (Human), UniProt Q15858) (assay: in-vitro Nav 1.7 PX (IC50)). Settings: not given.
Assay type: cell-based

Nav 1.7, sequence (Q15858 whole entry): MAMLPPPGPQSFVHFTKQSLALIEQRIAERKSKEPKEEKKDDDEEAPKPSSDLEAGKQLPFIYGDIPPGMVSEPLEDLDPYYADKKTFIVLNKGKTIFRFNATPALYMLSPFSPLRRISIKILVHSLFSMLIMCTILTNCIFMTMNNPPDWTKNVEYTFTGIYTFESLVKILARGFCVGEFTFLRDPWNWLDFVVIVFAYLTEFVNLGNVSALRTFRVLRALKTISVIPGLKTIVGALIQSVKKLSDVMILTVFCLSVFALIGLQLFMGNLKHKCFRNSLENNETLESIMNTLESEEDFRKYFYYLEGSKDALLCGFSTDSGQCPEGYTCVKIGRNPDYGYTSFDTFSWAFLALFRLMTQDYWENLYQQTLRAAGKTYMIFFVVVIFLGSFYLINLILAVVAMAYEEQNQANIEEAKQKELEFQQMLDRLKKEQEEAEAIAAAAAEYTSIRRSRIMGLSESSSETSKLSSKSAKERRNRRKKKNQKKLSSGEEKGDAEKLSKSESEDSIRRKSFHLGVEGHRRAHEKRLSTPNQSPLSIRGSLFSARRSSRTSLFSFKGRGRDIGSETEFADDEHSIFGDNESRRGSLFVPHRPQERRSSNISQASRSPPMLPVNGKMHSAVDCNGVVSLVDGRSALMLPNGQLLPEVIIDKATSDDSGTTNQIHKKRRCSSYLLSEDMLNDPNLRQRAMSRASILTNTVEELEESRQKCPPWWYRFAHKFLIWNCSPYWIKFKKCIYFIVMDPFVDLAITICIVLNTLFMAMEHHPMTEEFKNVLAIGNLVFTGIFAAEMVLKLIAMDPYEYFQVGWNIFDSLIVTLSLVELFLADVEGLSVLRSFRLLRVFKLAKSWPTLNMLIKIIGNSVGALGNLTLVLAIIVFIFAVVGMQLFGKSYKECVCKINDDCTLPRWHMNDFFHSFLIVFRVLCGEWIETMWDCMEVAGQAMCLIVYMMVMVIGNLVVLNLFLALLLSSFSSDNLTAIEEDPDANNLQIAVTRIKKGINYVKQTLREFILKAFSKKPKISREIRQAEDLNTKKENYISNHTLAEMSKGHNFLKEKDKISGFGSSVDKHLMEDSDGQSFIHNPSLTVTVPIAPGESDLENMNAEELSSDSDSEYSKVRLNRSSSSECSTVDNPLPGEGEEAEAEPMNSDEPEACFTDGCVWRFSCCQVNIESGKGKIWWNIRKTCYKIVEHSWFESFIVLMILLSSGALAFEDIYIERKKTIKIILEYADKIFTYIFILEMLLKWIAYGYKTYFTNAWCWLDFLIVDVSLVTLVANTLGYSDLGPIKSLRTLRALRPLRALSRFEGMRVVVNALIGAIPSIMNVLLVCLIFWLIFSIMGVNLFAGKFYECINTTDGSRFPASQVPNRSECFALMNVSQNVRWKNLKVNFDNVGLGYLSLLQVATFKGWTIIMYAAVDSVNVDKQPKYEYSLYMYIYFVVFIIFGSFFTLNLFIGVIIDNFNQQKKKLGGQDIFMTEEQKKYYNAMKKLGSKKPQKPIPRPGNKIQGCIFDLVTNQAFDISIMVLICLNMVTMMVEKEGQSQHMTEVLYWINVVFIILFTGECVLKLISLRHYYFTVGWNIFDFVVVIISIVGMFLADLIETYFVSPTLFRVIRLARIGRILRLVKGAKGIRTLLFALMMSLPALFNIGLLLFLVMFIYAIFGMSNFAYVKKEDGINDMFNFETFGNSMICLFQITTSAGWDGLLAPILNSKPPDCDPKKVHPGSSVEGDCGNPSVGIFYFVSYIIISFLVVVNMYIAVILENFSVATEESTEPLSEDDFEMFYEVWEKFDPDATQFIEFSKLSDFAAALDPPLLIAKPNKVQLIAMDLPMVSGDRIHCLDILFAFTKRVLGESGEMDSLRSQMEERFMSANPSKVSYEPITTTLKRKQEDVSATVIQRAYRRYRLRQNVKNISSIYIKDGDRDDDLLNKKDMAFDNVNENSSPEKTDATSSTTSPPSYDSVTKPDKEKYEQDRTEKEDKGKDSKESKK

| Structure (SMILES) | IC50 |
| --- | --- |
| COc1cc(-c2ccc(Cl)c(C)c2)c(F)cc1-n1c(=O)c(OC)cc2cc(S(=O)(=O)Nc3ccon3)ccc21 (atropisomer, axis not shown; (P)) [Example 414, (P)-1-(4′-chloro-2-fluoro-5-methoxy-3′-methyl-[1,1′-biphenyl]-4-yl)-N-(isoxazol-3-yl)-3-methoxy-2-oxo-1,2-dihydroquinoline-6-sulfonamide] | 13 nM |
| COc1ccc(-c2cncc(F)c2)cc1-n1c(=O)ccc2cc(S(=O)(=O)Nc3ccon3)ccc21 [Example 485, 1-(5-(5-fluoro-3-pyridinyl)-2-methoxyphenyl)-N-3-isoxazolyl-2-oxo-1,2-dihydro-6-quinolinesulfonamide] | 690 nM |
| O=c1ccc2cc(S(=O)(=O)Nc3ccon3)ccc2n1-c1ccc(C(F)(F)F)cc1-c1cn[nH]c1 [Example 346, P-1-(2-(1H-pyrazol-4-yl)-4-(trifluoromethyl)phenyl)-N-(isoxazol-3-yl)-2-oxo-1,2-dihydroquinoline-6-sulfonamide] | 648 nM |
| COc1cc(-c2cccc(OC(F)F)c2)c(F)cc1-n1c(=O)ccc2cc(S(=O)(=O)Nc3cc(C)ncn3)ccc21 (atropisomer, axis not shown; (P)) [Example 1173, (P)-1-(3′-(difluoromethoxy)-2-fluoro-5-methoxy-4-biphenylyl)-N-(6-methyl-4-pyrimidinyl)-2-oxo-1,2-dihydro-6-quinolinesulfonamide] | 146 nM |
| COc1cc(-c2cccc(F)c2)c(Cl)cc1-n1c(=O)ccc2cc(S(=O)(=O)Nc3cccnn3)ccc21 (atropisomer, axis not shown; (M)) [Example 468, (M)-1-(2-chloro-3′-fluoro-5-methoxy-[1,1′-biphenyl]-4-yl)-2-oxo-N-(pyridazin-3-yl)-1,2-dihydroquinoline-6-sulfonamide] | 7000 nM |

Other lines, results leading:

| IC50 | Structure (SMILES) |
| --- | --- |
| 20100 nM | COc1cc(-c2cc(F)cnc2OC)c(C)cc1-n1c(=O)ccc2cc(S(=O)(=O)Nc3ccon3)ccc21 (atropisomer, axis not shown; (M)) [Example 425, (M)-1-(4-(5-fluoro-2-methoxy-3-pyridinyl)-2-methoxy-5-methylphenyl)-N-3-isoxazolyl-2-oxo-1,2-dihydro-6-quinolinesulfonamide] |
| 39 nM | COc1nc(OCc2cc(F)c(F)c(F)c2)c(Cl)cc1-n1c(=O)ccc2cc(S(=O)(=O)Nc3ccon3)ccc21 [Example 1218, 1-(5-chloro-2-methoxy-6-((3,4,5-trifluorobenzyl)oxy)-3-pyridinyl)-N-3-isoxazolyl-2-oxo-1,2-dihydro-6-quinolinesulfonamide] |
| 416 nM | COc1nc(O[C@H]2C[C@H]3CC[C@@H]2C3)c(Cl)cc1-n1c(=O)ccc2cc(S(=O)(=O)Nc3ccon3)ccc21 [Example 1223, 1-(6-((1R,2S,4S)-bicyclo[2.2.1]hept-2-yloxy)-5-chloro-2-methoxy-3-pyridinyl)-N-3-isoxazolyl-2-oxo-1,2-dihydro-6-quinolinesulfonamide] |
| 78 nM | COc1cc(-c2cccc(C(F)(F)F)c2)ccc1-n1c(=O)cnc2cc(S(=O)(=O)Nc3ncccn3)ccc21 [Example 1200, 1-(3-methoxy-3′-(trifluoromethyl)-4-biphenylyl)-2-oxo-N-2-pyrimidinyl-1,2-dihydro-6-quinoxalinesulfonamide] |
| 32300 nM | COc1ccc(-c2cccc(F)c2)cc1-n1c(=O)ccc2cc(S(=O)(=O)Nc3ccon3)ccc21 (atropisomer, axis not shown; (M)) [Example 484, (M)-1-(3′-fluoro-4-methoxy-3-biphenylyl)-N-3-isoxazolyl-2-oxo-1,2-dihydro-6-quinolinesulfonamide] |
| 631 nM | COc1cc(C#CC2(O)CCCC2)c(F)cc1-n1c(=O)ccc2cc(S(=O)(=O)Nc3ccon3)ccc21 (atropisomer, axis not shown; (P)) [Example 1233, (P)-1-(5-fluoro-4-((1-hydroxycyclopentyl)ethynyl)-2-methoxyphenyl)-N-3-isoxazolyl-2-oxo-1,2-dihydro-6-quinolinesulfonamide] |

Same assay, conditions: in-vitro Nav 1.7 PX data

| Structure (SMILES) | IC50 |
| --- | --- |
| COc1ccc(-c2ccc(C(F)(F)F)cc2)cc1-n1c(=O)ccc2cc(S(=O)(=O)Nc3ccon3)ccc21 [Example 856, N-3-isoxazolyl-1-(4-methoxy-4′-(trifluoromethyl)-3-biphenylyl)-2-oxo-1,2-dihydro-6-quinolinesulfonamide] | 35 nM |
| COc1cc(-c2ccnc(OC)c2Cl)c(F)cc1-n1c(=O)ccc2cc(S(=O)(=O)Nc3ccon3)ccc21 [Example 745, 1-(4-(3-chloro-2-methoxy-4-pyridinyl)-5-fluoro-2-methoxyphenyl)-N-3-isoxazolyl-2-oxo-1,2-dihydro-6-quinolinesulfonamide] | 51 nM |
| COc1cnc(Cl)cc1-n1c(=O)ccc2cc(S(=O)(=O)Nc3ccon3)ccc21 [Example 617, 1-(2-chloro-5-methoxy-4-pyridinyl)-N-3-isoxazolyl-2-oxo-1,2-dihydro-6-quinolinesulfonamide] | 3880 nM |
| COc1cc(-c2cc(OC)c(-n3c(=O)ccc4cc(S(=O)(=O)Nc5ncc(F)cn5)ccc43)cc2F)ccc1F [Example 1010, 1-(2,4′-difluoro-3′,5-dimethoxy-4-biphenylyl)-N-(5-fluoro-2-pyrimidinyl)-2-oxo-1,2-dihydro-6-quinolinesulfonamide] | 74 nM |
| COc1ccc(Cl)cc1-c1cc(OC)c(-n2c(=O)ccc3cc(S(=O)(=O)Nc4ccon4)ccc32)cc1F [Example 744, 1-(5′-chloro-2-fluoro-2′,5-dimethoxy-4-biphenylyl)-N-3-isoxazolyl-2-oxo-1,2-dihydro-6-quinolinesulfonamide] | 7 nM |
| COc1cc(CC2CCCCC2)c(F)cc1-n1c(=O)ccc2cc(S(=O)(=O)Nc3cnccn3)ccc21 [Example 1116, 1-(4-(cyclohexylmethyl)-5-fluoro-2-methoxyphenyl)-2-oxo-N-2-pyrazinyl-1,2-dihydro-6-quinolinesulfonamide] | 30 nM |
| COc1cc(-c2ccc(C)c(F)c2)c(F)cc1-n1c(=O)ccc2cc(S(=O)(=O)Nc3ncccn3)ccc21 [Example 1126, 1-(2,3′-difluoro-5-methoxy-4′-methyl-4-biphenylyl)-2-oxo-N-2-pyrimidinyl-1,2-dihydro-6-quinolinesulfonamide] | 57 nM |
| COc1cc(-c2cc(F)cc(Cl)c2)c(F)cc1-n1c(=O)ccc2cc(S(=O)(=O)Nc3ccnc(C)n3)ccc21 [Example 934, 1-(3′-chloro-2,5′-difluoro-5-methoxy-4-biphenylyl)-N-(2-methyl-4-pyrimidinyl)-2-oxo-1,2-dihydro-6-quinolinesulfonamide] | 6 nM |
| COc1cc(-c2ccc(Cl)c(C)c2)c(F)cc1-n1c(=O)ccc2cc(S(=O)(=O)Nc3ncc(F)cn3)ccc21 (atropisomer, axis not shown; (P)) [Example 692, (P)-1-(4′-chloro-2-fluoro-5-methoxy-3′-methyl-4-biphenylyl)-N-(5-fluoro-2-pyrimidinyl)-2-oxo-1,2-dihydro-6-quinolinesulfonamide] | 30 nM |
| COc1cc(-c2ccc(Cl)cn2)c(F)cc1-n1c(=O)ccc2cc(S(=O)(=O)Nc3ccon3)ccc21 [Example 800, 1-(4-(5-chloro-2-pyridinyl)-5-fluoro-2-methoxyphenyl)-N-3-isoxazolyl-2-oxo-1,2-dihydro-6-quinolinesulfonamide] | 253 nM |

The next lines start with the values.

| IC50 | Structure (SMILES) |
| --- | --- |
| 38 nM | COc1cc(-c2cccc(C)c2OC)c(F)cc1-n1c(=O)ccc2cc(S(=O)(=O)Nc3ccon3)ccc21 [Example 792, 1-(2-fluoro-2′,5-dimethoxy-3′-methyl-4-biphenylyl)-N-3-isoxazolyl-2-oxo-1,2-dihydro-6-quinolinesulfonamide] |
| 131 nM | COc1cc(-c2cc(OC)c(-n3c(=O)ccc4cc(S(=O)(=O)Nc5cccnn5)ccc43)cc2F)ccc1F [Example 1007, 1-(2,4′-difluoro-3′,5-dimethoxy-4-biphenylyl)-2-oxo-N-3-pyridazinyl-1,2-dihydro-6-quinolinesulfonamide] |
| 12 nM | COc1cc(-c2ccc(C)cc2Cl)c(F)cc1-n1c(=O)ccc2cc(S(=O)(=O)Nc3ccon3)ccc21 [Example 725, 1-(2′-chloro-2-fluoro-5-methoxy-4′-methyl-4-biphenylyl)-N-3-isoxazolyl-2-oxo-1,2-dihydro-6-quinolinesulfonamide] |
| 93 nM | COc1cc(-c2cccc(C(F)(F)F)c2)ccc1-n1c(=O)ccc2cc(S(=O)(=O)Nc3ccc(F)cn3)ccc21 [Example 918, N-(5-fluoro-2-pyridinyl)-1-(3-methoxy-3′-(trifluoromethyl)-4-biphenylyl)-2-oxo-1,2-dihydro-6-quinolinesulfonamide] |
| 565 nM | COc1nc(OCC(F)(F)F)c(Cl)cc1-n1c(=O)ccc2cc(S(=O)(=O)Nc3ccon3)ccc21 [Example 833, 1-(5-chloro-2-methoxy-6-(2,2,2-trifluoroethoxy)-3-pyridinyl)-N-3-isoxazolyl-2-oxo-1,2-dihydro-6-quinolinesulfonamide] |
| 81 nM | COc1cc(CC2CCCCC2)c(F)cc1-n1c(=O)ccc2cc(S(=O)(=O)Nc3ccncn3)ccc21 [Example 1115, 1-(4-(cyclohexylmethyl)-5-fluoro-2-methoxyphenyl)-2-oxo-N-4-pyrimidinyl-1,2-dihydro-6-quinolinesulfonamide] |

Same assay, conditions: in-vitro Nav 1.7 PX data (PatchXpress)

| IC50 | Structure (SMILES) |
| --- | --- |
| 75 nM | COc1cc(-c2cc(F)cc(C(F)F)c2)ccc1-n1c(=O)ccc2cc(S(=O)(=O)Nc3ccon3)ccc21 [Example 1068, 1-(3′-(difluoromethyl)-5′-fluoro-3-methoxy-4-biphenylyl)-N-3-isoxazolyl-2-oxo-1,2-dihydro-6-quinolinesulfonamide] |

Same assay, conditions: in-vitro PatchXpress (PX)

| IC50 | Structure (SMILES) |
| --- | --- |
| 16 nM | COc1cc(-c2cccc(C(F)(F)F)c2)ccc1-n1c(=O)ccc2cc(S(=O)(=O)Nc3cccnn3)ccc21 (atropisomer, axis not shown; (P)) [Example 369, (P)-1-(3-methoxy-3′-(trifluoromethyl)-4-biphenylyl)-2-oxo-N-3-pyridazinyl-1,2-dihydro-6-quinolinesulfonamide] |
| 1800 nM | COc1cc(-c2ccncc2)c(F)cc1-n1c(=O)ccc2cc(S(=O)(=O)Nc3ccon3)ccc21 [Example 505, 1-(5-fluoro-2-methoxy-4-(4-pyridinyl)phenyl)-N-3-isoxazolyl-2-oxo-1,2-dihydro-6-quinolinesulfonamide] |
